These results are taken from patent US20190134039A1, “ANTIVIRAL JAK INHIBITORS USEFUL IN TREATING OR PREVENTING RETROVIRAL AND OTHER VIRAL INFECTIONS” (EMORY UNIVERSITY, priority 2011, published 2019).

The term EC90 denotes the concentration needed for an effect of 90%. One may read the EC50 as the concentration giving half of the maximal effect. As a reminder, the IC50 is the point on the concentration scale where inhibition reaches its midpoint.

Structures are written as SMILES. Read-outs that look alike come from different tables or passages of the source. Bounds are passed on as bounds.

The test system of one series is HIV-1 containing M184V. Nature of the series: microbe, parasite or virus in culture. In kind it is cell-based.
Series [1] has as its system acute infection in rhesus macaque macrophages. Nature of the series: cells. Conditions: for EC90: read-out: Acute infection in rhesus macaque macrophages EC90. From the text: (§1) The data (Shown in Table 5 below) are mean and standard deviations from at least three independent experiments.
Series [2] has as its system acute infection in rhesus macaque lymphocytes. Kind of series: cells. The conditions noted are these: Macaca mulatta, Lymphocyte.
Description: as §1

A further series deals with pSTAT1. Kind of series: cells.
A further series deals with CEM cells. Kind of series: cells. Conditions: Homo sapiens, CCRF-CEM, read-out: IC50 in CEM cells *MTT Assay.
The test system of the next series is Mφ. Kind of series: cells. Conditions: Homo sapiens, read-out: IC50 in Mφ *MTT Assay.
Series [3] relates to PHA stimulated primary human lymphocytes. Nature of the series: Proliferation and viability of PHA stimulated primary human lymphocytes. In kind it is cell-based. The conditions noted are these: 5 days, all concentrations. The procedure:
The effect of various Jak inhibitors on proliferation and viability of PHA or PHA+IL-2 stimulated primary human lymphocytes was evaluated using the techniques described above.
For all experiments, cells were incubated with media alone or drug-containing medium for 5 days prior to assessment of cell count and viability. Data are mean and standard deviations for at least three independent experiments conducted with at least 4 pooled donors, and duplicates within each experiment.

A further series deals with activated PBM cells. It is filed as cell-based, human. An excerpt: The data is shown in FIG. 2, in terms of total cell number (10^6 cells) versus aM drug in medium.
The data is shown in FIG. 3, in terms of cell viability (%) versus aM drug in medium.

For `N#CC[C@H](C1CCCC1)n1cc(-c2ncnc3[nH]ccc23)cn1` [Jakafi, Ruxolitinib], the EC90 in the series on HIV-1 containing M184V (Human immunodeficiency virus 1, Lymphocyte) is 3.2 ± 2.3 µM; in series [1] (Macaca mulatta, Macrophage), ~4 µM; in series [1], 4.2 ± 1.3 µM; in series [2] (read-out: Acute infection in rhesus macaque lymphocytes EC90), 1.3 ± 0.8 µM; in the series with pSTAT1 (read-out: EC90 pSTAT1), < 0.01 µM. The “FI50 (ratio of EC50 against mutant virus:EC50 against wild-type xxLAI)” value in the series on HIV-1 containing M184V (M184V) is 1.3. The “FI90 (ratio of EC90 against mutant virus:EC90 against wild-type xxLAI)” value with HIV-1 containing M184V (M184V) was 0.5. Besides, the EC50 in series [1] (Macaca mulatta, Macrophage, read-out: Acute infection in rhesus macaque macrophages EC50) was ~0.4 µM; in series [2] (read-out: Acute infection in rhesus macaque lymphocytes EC50), 0.09 ± 0.1 µM; in the series on pSTAT1 (read-out: EC50 pSTAT1), < 0.01 µM. The IC50 in the series with CEM cells is 11.8 ± 1.1 µM; with Mφ, > 100 µM. For the same compound, the “proliferation versus cells exposed to media alone” value in series [3] was “not significantly different”. In series [3], the “viability versus cells exposed to media alone” value is “not significantly different”. Moreover, in the series on activated PBM cells, the “total cell proliferation (total cell number)” value was “do not affect total cell proliferation”. The total cell viability entry in the series with activated PBM cells is given as “do not affect total cell viability”.
